Data reported in patent publication US8637484B2, “Modulation of growth hormone receptor expression and insulin-like growth factor expression” (Antisense Therapeutic Limited, priority 2003, dated 2014).
In the oligonucleotide strings, read from the 5' end, every base follows the letter of its sugar. An asterisk marks phosphorothioate; unmarked linkages are phosphodiester. Other units and linkages are bracketed, terminal groups are in braces. A string of capitals states the bases alone. e = 2'-O-(2-methoxyethyl) (MOE); [5mC] = 5-methylcytosine; d = 2'-deoxy (DNA)

Assays:
[1] = test system: serum insulin-like growth factor-I; experiment: Serum IGF-I by radioimmunoassay, 1 week pilot study in Balb/C(a) mice; assay type: in vivo, mouse; conditions: for % IGF-I reduction: 30 mg/kg once every 2 days, serum IGF-I at day 7 compared to saline control at day 7
Method: Forty male Balb/C(a) mice weighing 9 to 10 g were placed into cages, 4 animals per cage, and allowed to assimilate into their environment with new littermates ˜1 week prior (Day −7) to the commencement of 1 week study. Mice of this age would be at their maximum growth rate. Their body weights were measured and recorded every second day during this period. When mice weighed 11 g (day −2), a blood sample was collected under anesthesia as described below, and a serum IGF-I assay was performed to determine pre-treatment values and to aid in the assigning of mice to treatment groups in order to reduce animal variability. To obtain the blood sample, the animals were anaesthetized with pentobarbital (50 mg/kg i.p.) and non-fasting blood samples collected exactly 5 minutes later from the retrobulbar plexus through heparinized capillary tubes under light ether anesthesia. The 40 animals were placed into five groups with each group having a similar weight average and similar IGF-I average concentration for the trial.
Animals (n=8/group) were designated to the following five treatment groups:
Saline, antisense, mismatch control and octreotide samples were prepared, and coded for blinding. Animals were given a subcutaneous dose of saline every second day, and mismatch control or antisense with administration on days 0, 2, 4, 6. Animals were given twice daily doses of 25 μg octreotide. Animals were housed 4 per cage, for the duration of one week. They had access to a pre-determined quantity of standard mouse food and water at all times throughout the experiment. They were housed in a quiet, temperature- and humidity-maintained environment for the entirety of the study. At day 0 and before treatment on each day or second day, the animals had their body weight and food intake measured, enabling the correct dose of agent to be administered. The animals were monitored closely for any changes in fur, skin, eye, locomotion or other changes in behavior. No problems were observed. Every second day from day −7 to day 7 body weight and food intake were measured.
On day 7, one day after the last dose of antisense, and/or after the last octreotide dose, the animals were anaesthetized with pentobarbital (50 mg/kg i.p.) and non-fasting blood samples collected exactly 5 minutes later from the retrobulbar plexus through heparinized capillary tubes under light ether anesthesia (as on day −7 and 0).
At day −2 and day 7, serum IGF-I measurement was done by radioimmunoassay. Serum IGF-I level is the most widely used measure of growth hormone biological activity in human therapy. It is used to measure the efficacy of growth hormone antagonist treatments like Trovert, which block cells' responsiveness to excess growth hormone, and dopamine agonists and octreotide somatostatin […] drugs that block growth hormone secretion from the pituitary.

growth hormone receptor = experiment: [125I] hGH specific binding assay on liver microsomal membranes of treated mice; assay type: in vivo, mouse
Method: Specific binding assays were carried out with liver tissue using iodinated human growth hormone [^125I] hGH.
Microsomal membrane preparations were obtained as follows. 400 mg of tissue powder was homogenized in cold homogenizing buffer (50 mM Tris/HCl, 250 mM sucrose, pH 7.4). This was centrifuged at 2000 rpm for 10 min at 3° C. and the supernatant was saved. This was centrifuged again at 15,000 rpm for 20 min. Pellets were resuspended in 0.5 ml of RRA buffer with inhibitor (50 mM Tris, 20 mM MgC12, pH 7.4). Microsomal preparation samples were stored at −80° C. until the specific binding assay.
The [^125I] hGH specific binding assay was done as follows. Four glass tubes were set up for each sample, two for (−), two for (+). Different sample and solutions were added in each tube as follows (i) 0.2 ml RRA buffer (50 mM Tris, 20 mM MgCl2, 0.1% BSA, pH 7.4); (ii) 0.1 ml membrane (1/2 or 1/4 dilution); (iii) 0.1 ml bGH (10 μg/ml) for the (+) tube or 0.1 ml RRA buffer for the (−) tube; and (iv) 0.1 ml [^125I]-hGH tracer.
Samples were incubated at 4° C. with shaking overnight. The reaction was stopped with 2.5 ml of cold RRA, and the sample centrifuged at 2800 rpm for 25 min at 4° C. Supernatant was aspirated and pellets counted using the γ-counter. The specific binding capacity was calculated as: CPM(−)-CPM(+) Protein content of the microsomal samples was determined by the BCA protein assay.

serum IGF-I [2] = experiment: Serum IGF-I, additional 1 week study in mice; assay type: in vivo, mouse; conditions: 50 mg/kg once every 2 days, day 7
Method: (§1) Male Balb/C(a) mice were prepared and grouped for analysis as in Example 18 above.
Animals (n=10/group) were designated to the following treatment groups:
(§2) Animals were treated and serum IGF-I levels were measured as in Example 18 above. Briefly, for the one-week study, mice were given a subcutaneous dose of saline every second day, and mismatch control or antisense with administration on days 0, 2, 4, 6. On day 7, the animals were anaesthetized with pentobarbital and non-fasting blood samples collected exactly 5 minutes later from the retrobulbar plexus through heparinized capillary tubes under light ether anesthesia. Serum IGF-I measurement was done by radioimmunoassay at day 7.

[3] = test system: growth hormone receptor mRNA; experiment: Growth hormone receptor mRNA levels in liver, additional 1 week study; assay type: in vivo, mouse; conditions: one-week study
Method: as §1, §2
Growth hormone receptor mRNA levels in liver tissue samples from treated and untreated mice in this one-week study were assayed. The growth hormone receptor antisense inhibitor ISIS 227446 reduced growth hormone receptor mRNA levels in liver after the one-week study by 72% at the 50 mg/kg dose, relative to saline control (p<0.0001). The 30 mg/kg dose of ISIS 227446 yielded a 50% decrease in growth hormone receptor mRNA (p<0.0001). The unrelated control oligonucleotide ISIS 260120, at 50 mg/kg, reduced growth hormone receptor mRNA levels by approximately 15% (p>0.05).

serum IGF-I [4] = experiment: Serum IGF-I, two-week mouse study; assay type: in vivo; conditions: for % decrease relative to 3 mg/kg ISIS 227446: day 14
Method: A two-week study was done in similar fashion to the one-week study in Example 18, this time using ISIS 227446 at doses of 3, 5, 10, 20 and 30 mg/kg. The mismatch control was given at the same doses. Mice were treated with antisense compound or saline every other day for 14 days.
P-values were determined by t-test.

[5] = 30 mg/kg sc every second day for one week
[6] = 30 mg/kg every second day for one week, liver membranes

Q: With “acaaagatccatacctgaga (eA*e[5mC]*eA*eA*eA*dG*dA*dT*d[5mC]*d[5mC]*dA*dT*dA*d[5mC]*d[5mC]*eT*eG*eA*eG*eA; antisense) [ISIS 227446]” as the substance, how does the “effect on serum IGF-I” value ([1]; 3 mg/kg once every 2 days, day 7) read?
A: no effect

Q: And the “IGF-I (ng/ml) Day 7” value ([1]; 3 mg/kg sc once every 2 days (days 0, 2, 4, 6))?
A: 129.63 ± 33.76 ng/mL

Q: What about the “% IGF-I reduction” value [1] of the same substance?
A: 45%

Q: What about the “% IGF-I reduction” value ([1]; listed as ASO) of the same substance?
A: 44.51%

Q: And the “serum IGF-1, % of the control (saline) group” value [1, 5]?
A: 55%

Q: What about the “IGF-I (ng/ml) Day 7” value ([1]; 30 mg/kg sc once every 2 days (days 0, 2, 4, 6)) of the same substance?
A: 56.95 ± 10.34 ng/mL

Q: What about the “IGF-I (ng/ml) Day −2” value ([1]; pre-treatment value of the group given 3 mg/kg sc once every 2 days) of the same substance?
A: 216.23 ± 78.14 ng/mL

Q: What about the “IGF-I (ng/ml) Day −2” value ([1]; pre-treatment value of the group given 30 mg/kg sc once every 2 days) of the same substance?
A: 181.84 ± 71.32 ng/mL

Q: And the “reduction of specific binding compared to saline, ¼ dilution” value (growth hormone receptor; 30 mg/kg)?
A: 39%

Q: What about the “reduction of specific binding compared to saline, ½ dilution” value (growth hormone receptor; 30 mg/kg) of the same substance?
A: 26%

Q: And the “Specific binding/mg protein (cpm) ¼ dilution” value (growth hormone receptor; [6])?
A: 5546 ± 789 cpm

Q: And the “Specific binding/mg protein (cpm) ½ dilution” value (growth hormone receptor; [6])?
A: 4205 ± 534 cpm

Q: And the “growth hormone receptor levels (growth hormone binding activity), % of control (saline) group” value (growth hormone receptor; [5])?
A: 61%

Q: What about the “growth hormone receptor levels, % of the control (mismatch) group” value (growth hormone receptor; 30 mg/kg, ½ dilution experiment) of the same substance?
A: 59%

Q: What about the “reduction of serum IGF-I relative to saline control” value (serum IGF-I [2]) of the same substance?
A: 33%

Q: And the “reduction of serum IGF-I relative to the unrelated control” value (serum IGF-I [2])?
A: 20%

Q: And the “decrease in growth hormone receptor mRNA in liver” value ([3]; 30 mg/kg)?
A: 50%

Q: And the “reduction of growth hormone receptor mRNA levels in liver relative to saline control” value ([3]; 50 mg/kg)?
A: 72%

Q: What about the “Day 14 serum IGF-I” value (serum IGF-I [4]; 3 mg/kg every other day for 14 days) of the same substance?
A: 214 ng/mL

Q: What about the “effect on serum IGF-I levels” value (serum IGF-I [4]; 3 mg/kg, 14 days, equivalent to saline control (separate experiment)) of the same substance?
A: no effect

Q: And the “% decrease relative to 3 mg/kg ISIS 227446” value (serum IGF-I [4]; 3 mg/kg)?
A: 0%

Q: What about the “Day 14 serum IGF-I” value (serum IGF-I [4]; 5 mg/kg every other day for 14 days) of the same substance?
A: 194 ng/mL

Q: What about the “% decrease relative to 3 mg/kg ISIS 227446” value (serum IGF-I [4]; 5 mg/kg) of the same substance?
A: 9%

Q: And the “Day 14 serum IGF-I” value (serum IGF-I [4]; 10 mg/kg every other day for 14 days)?
A: 130 ng/mL

Q: And the “% decrease relative to 3 mg/kg ISIS 227446” value (serum IGF-I [4]; 10 mg/kg)?
A: 39%

Q: And the “Day 14 serum IGF-I” value (serum IGF-I [4]; 20 mg/kg every other day for 14 days)?
A: 122 ng/mL

Q: What about the “% decrease relative to 3 mg/kg ISIS 227446” value (serum IGF-I [4]; 20 mg/kg) of the same substance?
A: 43%

Q: And the “Day 14 serum IGF-I” value (serum IGF-I [4]; 30 mg/kg every other day for 14 days)?
A: 126 ng/mL

Q: What about the “% decrease relative to 3 mg/kg ISIS 227446” value (serum IGF-I [4]; 30 mg/kg) of the same substance?
A: 41%

Q: What about the “decrease in serum IGF-I levels compared to 3 mg/kg” value (serum IGF-I [4]; >10 mg/kg, 14 days) of the same substance?
A: 39-43%
